The target of assay [1] is CSF-1R (Homo sapiens, UniProt P07333). Description: Z'-LYTE kinase assay. The settings on record: mean ± SD. Format: biochemical.
The target in assay [2] is T1, RIPK2(h) (Homo sapiens, UniProt O43353).
T1 construct: purchased Eurofins (KinaseProfiler)
Description: Eurofins kinase panel. Format: biochemical. The settings on record: read-out: Inhibition rate (%).

The test system of assay [3] is KG-1. Description: Cell proliferation assay. The settings on record: Homo sapiens, KG-1; 72 h, mean ± SD. Format: cell-based, human. On the procedure: (§1) The cancer cell lines indicated in Figure 3 were seeded in 96-well plates at a low density in growth medium. The next day, appropriate controls or the designated concentrations of the compounds were added to each well, and the cells were incubated for 72 h. HUVECs (passage 3) were seeded in 96-well plates in growth medium overnight and transferred to serum-free medium for 24 h. The following day, appropriate controls or the designated concentrations of the compounds were added to each well, and 100 ng/mL growth factor (bFGF or VEGF) was added to the indicated wells. The cells were incubated for 48 h. Finally, cell proliferation was determined using a sulforhodamine B (SRB) assay or a cell counting kit-8 (CCK-8) assay. […] IC50 values for proliferation curves were calculated using a 4-parameter logistic nonlinear regression model with SoftMax Pro Software (Molecular Devices, San Jose, USA).

For assay [4], the system named is RT112. The assay can be described thus: Cell proliferation assay. Format: cell-based, human. The settings on record: Homo sapiens, RT-112; 72 h, mean ± SD. The method, then: as §1
The subject of assay [5] is KATOIII. The assay can be described thus: Cell proliferation assay. Format: cell-based, human. The settings on record: Homo sapiens, KATO III; 72 h, mean ± SD. On the procedure:
as §1

Assay [6] concerns SNU16. The assay can be described thus: Cell proliferation assay. In kind it is cell-based, human. The settings on record: Homo sapiens, SNU-16; 72 h, mean ± SD. On the procedure:
as §1

The subject of assay [7] is NCI-H1581. The assay can be described thus: Cell proliferation assay. The settings on record: Homo sapiens, NCI-H1581; 72 h, mean ± SD. In kind it is cell-based, human. On the procedure:
as §1

Assay [8] relates to HUH7. Description: Cell proliferation assay. The settings on record: Homo sapiens, Huh-7; 72 h, mean ± SD. In kind it is cell-based, human. The method, then:
as §1

In assay [9] the test system is NCI-H716. The assay can be described thus: Cell proliferation assay. The settings on record: Homo sapiens, NCI-H716; 72 h, mean ± SD. Format: cell-based, human. On the procedure:
as §1

Assay [10] deals with UMUC14. Description: Cell proliferation assay. Format: cell-based, human. The settings on record: Homo sapiens, UMUC14; 72 h, mean ± SD. On the procedure: as §1
The subject of assay [11] is SUM52PE. Description: Cell proliferation assay. Format: cell-based, human. The settings on record: Homo sapiens, SUM52PE; 72 h, mean ± SD. On the procedure:
as §1

Assay [12] deals with OPM2. The assay can be described thus: Cell proliferation assay. The settings on record: Homo sapiens, OPM-2; 72 h, mean ± SD. Format: cell-based, human. On the procedure:
as §1

Assay [13] has as its target T2, HIPK4(h) (Homo sapiens, UniProt Q8NE63).
T2 construct: purchased Eurofins (KinaseProfiler)
T2 sequence (Q8NE63 1-616): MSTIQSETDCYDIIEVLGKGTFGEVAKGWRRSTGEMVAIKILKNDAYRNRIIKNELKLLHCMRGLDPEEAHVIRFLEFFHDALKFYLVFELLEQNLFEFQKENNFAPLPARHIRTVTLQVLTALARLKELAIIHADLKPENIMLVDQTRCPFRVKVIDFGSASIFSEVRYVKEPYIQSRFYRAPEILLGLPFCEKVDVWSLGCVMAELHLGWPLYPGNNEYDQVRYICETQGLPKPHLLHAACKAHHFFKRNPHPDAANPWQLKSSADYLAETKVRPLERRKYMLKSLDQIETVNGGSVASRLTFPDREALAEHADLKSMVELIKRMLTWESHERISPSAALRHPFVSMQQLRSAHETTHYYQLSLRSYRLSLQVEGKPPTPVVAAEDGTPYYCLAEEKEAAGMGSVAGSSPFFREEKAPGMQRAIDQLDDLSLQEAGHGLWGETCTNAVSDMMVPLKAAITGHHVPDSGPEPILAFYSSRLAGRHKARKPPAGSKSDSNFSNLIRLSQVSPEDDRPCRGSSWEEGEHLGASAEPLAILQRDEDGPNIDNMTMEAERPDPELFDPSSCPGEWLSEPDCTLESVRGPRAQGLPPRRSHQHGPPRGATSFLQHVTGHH
Description: Eurofins kinase panel. Format: biochemical. The settings on record: read-out: Inhibition rate (%).

Assay [14] concerns the target T3, NEK11(h) (Homo sapiens, UniProt Q8NG66).
T3 construct: purchased Eurofins (KinaseProfiler)
T3 sequence (Q8NG66 1-645): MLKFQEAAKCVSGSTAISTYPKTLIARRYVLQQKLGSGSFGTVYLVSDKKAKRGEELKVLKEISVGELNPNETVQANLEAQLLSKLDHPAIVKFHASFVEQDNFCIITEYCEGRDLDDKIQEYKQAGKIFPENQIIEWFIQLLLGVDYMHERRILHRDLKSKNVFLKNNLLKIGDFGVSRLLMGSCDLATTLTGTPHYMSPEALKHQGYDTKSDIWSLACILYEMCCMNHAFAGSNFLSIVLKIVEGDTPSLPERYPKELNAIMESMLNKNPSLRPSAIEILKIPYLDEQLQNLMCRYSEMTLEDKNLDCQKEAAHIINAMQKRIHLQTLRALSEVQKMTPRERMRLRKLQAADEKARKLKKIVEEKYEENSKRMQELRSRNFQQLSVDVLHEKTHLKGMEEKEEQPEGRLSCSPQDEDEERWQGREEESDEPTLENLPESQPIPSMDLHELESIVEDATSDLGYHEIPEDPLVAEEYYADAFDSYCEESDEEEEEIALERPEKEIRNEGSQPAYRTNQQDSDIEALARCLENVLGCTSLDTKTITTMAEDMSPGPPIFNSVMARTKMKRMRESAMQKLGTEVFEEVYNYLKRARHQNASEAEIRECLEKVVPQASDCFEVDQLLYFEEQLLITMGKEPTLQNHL
Description: Eurofins kinase panel. In kind it is biochemical. The settings on record: read-out: Inhibition rate (%).

T1 sequence (O43353 whole entry): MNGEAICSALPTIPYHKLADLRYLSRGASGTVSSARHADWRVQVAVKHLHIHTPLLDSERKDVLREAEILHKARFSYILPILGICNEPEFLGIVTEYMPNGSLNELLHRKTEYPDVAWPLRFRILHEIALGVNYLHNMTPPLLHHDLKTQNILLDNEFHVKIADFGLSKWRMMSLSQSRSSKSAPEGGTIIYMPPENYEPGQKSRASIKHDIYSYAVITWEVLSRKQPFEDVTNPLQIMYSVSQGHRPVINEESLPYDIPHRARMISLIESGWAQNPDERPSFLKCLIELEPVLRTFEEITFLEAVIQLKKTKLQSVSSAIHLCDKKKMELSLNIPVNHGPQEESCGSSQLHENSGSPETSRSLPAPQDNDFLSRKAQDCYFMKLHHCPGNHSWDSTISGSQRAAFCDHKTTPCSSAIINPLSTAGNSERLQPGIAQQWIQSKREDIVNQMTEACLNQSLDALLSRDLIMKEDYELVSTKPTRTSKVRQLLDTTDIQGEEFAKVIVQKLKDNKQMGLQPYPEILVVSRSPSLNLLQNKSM
Chain of CSF-1R (P07333 20-972): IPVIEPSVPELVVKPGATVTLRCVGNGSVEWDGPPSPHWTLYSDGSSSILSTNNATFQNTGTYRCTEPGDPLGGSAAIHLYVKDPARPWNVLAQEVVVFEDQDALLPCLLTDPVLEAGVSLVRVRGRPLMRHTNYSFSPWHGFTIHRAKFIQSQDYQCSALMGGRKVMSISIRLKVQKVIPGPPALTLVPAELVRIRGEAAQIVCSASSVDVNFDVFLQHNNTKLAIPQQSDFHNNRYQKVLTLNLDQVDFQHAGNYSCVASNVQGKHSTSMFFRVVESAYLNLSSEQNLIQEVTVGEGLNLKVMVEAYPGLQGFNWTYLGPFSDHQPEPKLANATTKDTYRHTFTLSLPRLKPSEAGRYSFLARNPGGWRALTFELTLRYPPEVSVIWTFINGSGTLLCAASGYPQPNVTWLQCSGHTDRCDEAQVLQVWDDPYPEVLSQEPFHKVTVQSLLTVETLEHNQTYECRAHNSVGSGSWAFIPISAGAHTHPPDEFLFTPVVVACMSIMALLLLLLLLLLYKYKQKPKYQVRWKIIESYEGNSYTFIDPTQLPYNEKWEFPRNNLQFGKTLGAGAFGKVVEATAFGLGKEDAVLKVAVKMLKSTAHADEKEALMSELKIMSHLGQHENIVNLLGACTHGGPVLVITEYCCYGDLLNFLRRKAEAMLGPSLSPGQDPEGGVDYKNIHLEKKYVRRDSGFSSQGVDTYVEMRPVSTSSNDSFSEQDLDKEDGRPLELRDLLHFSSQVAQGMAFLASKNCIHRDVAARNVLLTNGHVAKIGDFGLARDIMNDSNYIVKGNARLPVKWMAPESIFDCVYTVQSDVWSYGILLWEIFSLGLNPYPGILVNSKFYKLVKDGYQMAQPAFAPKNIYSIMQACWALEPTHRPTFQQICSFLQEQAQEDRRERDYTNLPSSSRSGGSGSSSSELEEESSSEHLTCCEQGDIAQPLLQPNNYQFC

Broadly, the IC50 is the midpoint of a concentration-inhibition curve. Low values mean greater potency, high ones weaker potency. Usually inhibition stands for the drop in the measured response relative to a control, in per cent. For `COc1cc(OC)c(Cl)c(-c2ccc3c(NC(=O)c4ccc(N5CCNC(C)(C)C5)cc4)n[nH]c3n2)c1Cl` [3D185], the IC50 in [1] was 3.8 nM; in assay [3], 2 ± 0.4 nM; in assay [4] it was 36.8 ± 6.8 nM; in assay [5], 11.3 ± 0.2 nM; in assay [6], 0.9 ± 0.1 nM; in [7] it was 17.3 ± 5.7 nM. For the same compound, the IC50 came to 49.8 ± 1.5 nM in [8]; 3 ± 0.4 nM in assay [9]; 30.9 ± 5.3 nM in assay [10]; 2 nM in assay [11]; 19.2 ± 4.3 nM in assay [12]. Further, the inhibition at 0.01 µM amounted to 2% in [2] (10 nM), 1% in assay [13] (10 nM) and 5% in assay [14] (10 nM). Besides, the values for the inhibition at 0.1 µM in [2] (100 nM), in [13] (100 nM) and in assay [14] (100 nM) were 6%, -17% and 15%, respectively. Moreover, the inhibition at 1 µM in assay [2] (1000 nM) turned out to be 3%; in [13] (1000 nM), 16%; in [14] (1000 nM), 37%.
